Laboratory results from US12479840B2, “HMG-CoA reductase degradation inducing compound” (Uppthera, priority 2020, dated 2025).

biological target: T1, HMG-CoA reductase (Homo sapiens, UniProt P04035); assay: HMG-CoA reductase (HMGCR) degradation in HepG2 cells by western blotting; assay type: cell-based; conditions: treated for 18 hours, ratio of HMG-CoA reductase to GAPDH, read-out: DC50
T1 construct: endogenous in cells; host or cells: HepG2 (Korea Cell Line Bank)
T1 sequence (P04035 1-888): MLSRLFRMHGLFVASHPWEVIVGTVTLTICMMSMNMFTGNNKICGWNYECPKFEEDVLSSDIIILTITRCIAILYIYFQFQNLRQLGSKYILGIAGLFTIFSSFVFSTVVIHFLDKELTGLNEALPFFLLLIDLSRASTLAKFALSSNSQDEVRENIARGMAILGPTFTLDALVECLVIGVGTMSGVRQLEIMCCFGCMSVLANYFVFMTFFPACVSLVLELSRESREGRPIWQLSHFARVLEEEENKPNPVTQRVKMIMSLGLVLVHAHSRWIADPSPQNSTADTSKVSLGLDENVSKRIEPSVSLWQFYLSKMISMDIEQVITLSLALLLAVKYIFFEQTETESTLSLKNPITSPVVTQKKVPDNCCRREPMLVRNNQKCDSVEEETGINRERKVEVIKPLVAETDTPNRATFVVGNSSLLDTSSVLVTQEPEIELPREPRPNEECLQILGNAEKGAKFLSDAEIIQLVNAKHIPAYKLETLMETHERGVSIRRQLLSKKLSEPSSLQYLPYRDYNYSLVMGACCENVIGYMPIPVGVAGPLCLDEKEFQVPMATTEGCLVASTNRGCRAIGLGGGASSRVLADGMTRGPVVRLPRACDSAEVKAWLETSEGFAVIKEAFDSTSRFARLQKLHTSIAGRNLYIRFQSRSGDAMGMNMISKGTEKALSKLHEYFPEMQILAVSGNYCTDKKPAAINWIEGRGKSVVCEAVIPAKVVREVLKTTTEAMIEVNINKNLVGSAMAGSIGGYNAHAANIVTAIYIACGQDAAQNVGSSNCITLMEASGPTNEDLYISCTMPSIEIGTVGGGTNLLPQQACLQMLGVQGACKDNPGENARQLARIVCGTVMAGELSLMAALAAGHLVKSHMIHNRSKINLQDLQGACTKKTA
Protocol: HepG2, a human liver cancer cell line, was purchased from the Korea Cell Line Bank (KCLB), Seoul, Korea. The passage in cell culture was maintained at P105 to P110.
The compounds of the present invention were completely dissolved in DMSO and used in the experiment. 2×10^5 cells were seeded for each well of a 12-well plate (SPL), and the cells were cultured in the culture medium in a total volume of 2 ml. Each of the compounds of the present invention and comparative compounds was diluted three folds from the highest concentration of 3 μM to the lowest concentration in 10 points and treated for 18 hours.
Each of the compounds the present invention and comparative compounds was diluted three folds from the highest concentration of 3 μM to the lowest concentration of […] in 10 points and was treated for 18 hours.
For SDS-PAGE and Western blotting, 1×RIPA lysis buffer (Rockland, Cat. No. MB-030-0050; Lot no. 39751), 100× Protease Inhibitor Cocktail (Quartett, Cat. No. PPI1015; Lot no. PCO50038424), Pierce™ BCA protein assay kit (ThermoScientific, Cat. No. 23225; Lot no. UC276876), albumin standard (ThermoScientific, Cat. No. 23209; Lot no. UB269561), 4-15% Mini-PROTEAN TGX stain-free gel (Bio-rad, Cat. No. 4568085; Lot no. L007041B), 10× Tris/Glycine/SDS buffer (Bio-rad, Cat. No. 1610732; Lot no. 10000044375B); 10×TBS (Bio-rad, Cat. No. 1706435; Lot no. 1000045140B), 10% Tween 20 (Cat. No. 1610781; Lot no. L004152B), Color protein standard broad range (NEB, Cat. No. P7719S; Lot no. 10040349), 4× Laemmli sample buffer (Bio-rad, Cat. No. 1610747; Lot no. L004133B), β-mercaptoethanol (Sigma-Aldrich, Cat. No. M3148; Lot no. 60-24-2), SuperBlock™ T20 (TBS) blocking buffer (ThermoScientific, Cat. No. 37536; Lot no. UC282578), 1M sodium azide solution (Sigma-Aldrich, Cat. No. 08591-1 mL-F; Lot no. BCBV4989), α-Rabbit pAb to Ms IgG (abcam, Cat. No. ab97046; Lot no. GR3252115-1), α-Goat pAb to Rb IgG (CST, Cat. No. 7074S; Lot no. 28), α-GAPDH (abcam, Cat. No. ab8245), α-HMGCR (GeneTex, Cat. No. GTX54088; Lot no. 821903509), ECL™ Prime western blotting reagents (GE Healthcare, Cat. No. RPN2232; Lot no. 17001655), Ponceau S solution (Sigma-Aldrich, Cat. No. P7170; Lot no. SLBV4112), Difco™ Skim milk (BD, Cat. No. 232100; Lot no. 8346795), and iBlot® 2 NC Regular stacks (Invitrogen, Cat. No. IB23001; Lot no. 2NR110619-02), were used.
For cell harvesting, the cells were first separated from the plate using trypsin and then washed with the medium and PBS. Specifically, the medium was suctioned off and washed with 1 mL of PBS, and PBS was suctioned off. The cells were treated with 0.5 mL TrypLE™ Express at 37° C. for 7 minutes to separate the cells, and then 0.5 mL of complete medium was added to collect 1 mL of cell culture solution. Then, 1 mL of the cell collection solution was centrifuged at 8,000 rpm for 120 seconds, and the supernatant was removed. After washing with 0.2 mL of PBS, the PBS was removed.
For cell lysis, a lysis buffer was added and cell debris was removed to obtain a cell lysate. Specifically, the cells were treated with 70 μL of 1×RIPA buffer containing a protease inhibitor and incubated for 30 minutes on ice. Then, the cells were centrifuged at 4° C. and 15,000 rpm for 10 minutes to obtain a cell lysate.
Then, a standard curve was obtained using the BCA assay, and the protein mass in the lysate was quantified by substituting the curve. The mixture was incubated at 37° C. for 30 minutes using 20 μL of standard or sample solution, and 200 μL of BCA or Bradford solution, and measured at 562 nm absorbance. Samples were prepared by adding 4× sample buffer so that the quantity of protein added to each well was 15 μg.
Sodium dodecyl sulfate polyacrylamide gel electrophoresis (SDS-PAGE) was performed by setting a running time of 100 minutes at 120 V on a 4-15% Mini-PROTEAN TGX stain-free gel (15 well). Transferring was performed on iBlot® 2 NC Mini stacks at P0 mode of the dry blotting system. […]

Compound | DC50 [nM]
Cc1ncsc1-c1ccc(CNC(=O)[C@@H]2C[C@@H](O)CN2C(=O)[C@@H](NC(=O)COCCOCCNC(=O)CCC(C)(C)C(=O)O[C@H]2C[C@@H](C)C=C3C=C[C@H](C)[C@H](CC[C@@H]4C[C@@H](O)CC(=O)O4)[C@H]32)C(C)(C)C)cc1 [Compound 9, (S)-(1S,3R,7S,8S,8aR)-8-(2-((2R,4R)-4-hydroxy-6-oxotetrahydro-2H-pyran-2-yl)ethyl)-3,7-dimethyl-1,2,3,7,8,8a-hexahydronaphthalen-1-yl 3-((2S,4R)-4-hydroxy-2-((4-(4-methylthiazol-5-yl)benzyl)carbamoyl)pyrrolidine-1-carbonyl)-2,2,17,17-tetramethyl-5,14-dioxo-7,10-dioxa-4,13-diazaoctadecan-18-oate] | < 50
Cc1ncsc1-c1ccc(CNC(=O)[C@@H]2C[C@@H](O)CN2C(=O)[C@@H](NC(=O)COCCOCCOCCNC(=O)CCC(C)(C)C(=O)O[C@H]2C[C@@H](C)C=C3C=C[C@H](C)[C@H](CC[C@@H]4C[C@@H](O)CC(=O)O4)[C@H]32)C(C)(C)C)cc1 [Compound 10] | < 50
Cc1ncsc1-c1ccc(CNC(=O)[C@@H]2C[C@@H](O)CN2C(=O)[C@@H](NC(=O)COCCOCCOCCOCCNC(=O)CCC(C)(C)C(=O)O[C@H]2C[C@@H](C)C=C3C=C[C@H](C)[C@H](CC[C@@H]4C[C@@H](O)CC(=O)O4)[C@H]32)C(C)(C)C)cc1 [Compound 11, (S)-(1S,3R,7S,8S,8aR)-8-(2-((2R,4R)-4-hydroxy-6-oxotetrahydro-2H-pyran-2-yl)ethyl)-3,7-dimethyl-1,2,3,7,8,8a-hexahydronaphthalen-1-yl 3-((2S,4R)-4-hydroxy-2-((4-(4-methylthiazol-5-yl)benzyl)carbamoyl)pyrrolidine-1-carbonyl)-2,2,23,23-tetramethyl-5,20-dioxo-7,10,13,16-tetraoxa-4,19-diazatetracosan-24-oate] | < 50
Cc1ncsc1-c1ccc(CNC(=O)[C@@H]2C[C@@H](O)CN2C(=O)[C@@H](NC(=O)COCCOCCOCCOCCOCCNC(=O)CCC(C)(C)C(=O)O[C@H]2C[C@@H](C)C=C3C=C[C@H](C)[C@H](CC[C@@H]4C[C@@H](O)CC(=O)O4)[C@H]32)C(C)(C)C)cc1 [Compound 12, (S)-(1S,3R,7S,8S,8aR)-8-(2-((2R,4R)-4-hydroxy-6-oxotetrahydro-2H-pyran-2-yl)ethyl)-3,7-dimethyl-1,2,3,7,8,8a-hexahydronaphthalen-1-yl 3-((2S,4R)-4-hydroxy-2-((4-(4-methylthiazol-5-yl)benzyl)carbamoyl)pyrrolidine-1-carbonyl)-2,2,26,26-tetramethyl-5,23-dioxo-7,10,13,16,19-pentaoxa-4,22-diazaheptacosan-27-oate] | < 50
C[C@H]1C=C2C=C[C@H](C)[C@H](CC[C@H]3C[C@H](O)CC(=O)O3)[C@H]2[C@@H](OC(=O)NCCOCCOCCOCC(=O)NCC(C)(C)C)C1 [Compound 13, (1S,3R,7S,8S,8aR)-8-(2-((2S,4S)-4-hydroxy-6-oxotetrahydro-2H-pyran-2-yl)ethyl)-3,7-dimethyl-1,2,3,7,8,8a-hexahydronaphthalen-1-yl (14,14-dimethyl-11-oxo-3,6,9-trioxa-12-azapentadecyl) carbamate] | > 500

Other lines, results leading:

DC50 [nM] | Compound
50 to 500 | Cc1ncsc1-c1ccc(CNC(=O)[C@@H]2C[C@@H](O)CN2C(=O)[C@@H](NC(=O)COCCNC(=O)O[C@H]2C[C@@H](C)C=C3C=C[C@H](C)[C@H](CC[C@@H]4C[C@@H](O)CC(=O)O4)[C@H]32)C(C)(C)C)cc1 [Compound 14, (1S,3R,7S,8S,8aR)-8-(2-((2R,4R)-4-hydroxy-6-oxotetrahydro-2H-pyran-2-yl)ethyl)-3,7-dimethyl-1,2,3,7,8,8a-hexahydronaphthalen-1-yl (2-(2-(((S)-1-((2S,4R)-4-hydroxy-2-((4-(4-methylthiazol-5-yl)benzyl)carbamoyl)pyrrolidin-1-yl)-3,3-dimethyl-1-oxobutan-2-yl)amino)-2-oxoethoxy)ethyl)carbamate]
< 50 | Cc1ncsc1-c1ccc(CNC(=O)[C@@H]2C[C@@H](O)CN2C(=O)[C@@H](NC(=O)COCCOCCNC(=O)O[C@H]2C[C@@H](C)C=C3C=C[C@H](C)[C@H](CC[C@@H]4C[C@@H](O)CC(=O)O4)[C@H]32)C(C)(C)C)cc1 [Compound 15, (1S,3R,7S,8S,8aR)-8-(2-((2R,4R)-4-hydroxy-6-oxotetrahydro-2H-pyran-2-yl)ethyl)-3,7-dimethyl-1,2,3,7,8,8a-hexahydronaphthalen-1-yl (2-(2-(2-(((S)-1-((2S,4R)-4-hydroxy-2-((4-(4-methylthiazol-5-yl)benzyl)carbamoyl)pyrrolidin-1-yl)-3,3-dimethyl-1-oxobutan-2-yl)amino)-2-oxoethoxy)ethoxy)ethyl)carbamate]
< 50 | Cc1ncsc1-c1ccc(CNC(=O)[C@@H]2C[C@@H](O)CN2C(=O)[C@@H](NC(=O)COCCOCCOCCNC(=O)O[C@H]2C[C@@H](C)C=C3C=C[C@H](C)[C@H](CC[C@@H]4C[C@@H](O)CC(=O)O4)[C@H]32)C(C)(C)C)cc1 [Compound 16, (1S,3R,7S,8S,8aR)-8-(2-((2R,4R)-4-hydroxy-6-oxotetrahydro-2H-pyran-2-yl)ethyl)-3,7-dimethyl-1,2,3,7,8,8a-hexahydronaphthalen-1-yl ((S)-13-((2S,4R)-4-hydroxy-2-((4-(4-methylthiazol-5-yl)benzyl)carbamoyl)pyrrolidine-1-carbonyl)-14,14-dimethyl-11-oxo-3,6,9-trioxa-12-azapentadecyl)carbamate]
